# Results taken from ChEMBL document CHEMBL1201862, “PubChem BioAssay data set” (2004).
#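 In this assay, cells in 96-well plates receive the compound at five concentrations for 48 hours. Endpoints are linearly interpolated between the surrounding concentrations. GI50 marks 50% less growth.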 Active and inactive are the calls of the source. Cut-off read from the data, not from the text of the source: active = GI50 up to about 1.1 µM and inactive = higher.
# Experiments:
# Assay in all cases: growth of human tumour cells (NCI), 48 h
# SK-OV-3 = tested on: SK-OV-3
# SN12C = tested on: SN12C
# Malme-3M = tested on: Malme-3M
# HCT-116 = tested on: HCT-116
# A549 = tested on: A549
# UACC-257 = tested on: UACC-257
# HT-29 = tested on: HT-29
# U-251 = tested on: U-251
# SF-295 = tested on: SF-295
# RPMI-8226 = tested on: RPMI-8226
# SNB-19 = tested on: SNB-19
# SR = tested on: SR
# NCI-H522 = tested on: NCI-H522
# CAKI-1 = tested on: CAKI-1
# COLO 205 = tested on: COLO 205
# EKVX = tested on: EKVX
# UACC-62 = tested on: UACC-62
# SK-MEL-2 = tested on: SK-MEL-2
# LOX IMVI = tested on: LOX IMVI
# MCF7 = tested on: MCF7
SMILES,GI50 (SK-OV-3),GI50 (SN12C),GI50 (Malme-3M),GI50 (HCT-116),GI50 (A549),GI50 (UACC-257),GI50 (HT-29),GI50 (U-251),GI50 (SF-295),GI50 (RPMI-8226),GI50 (SNB-19),GI50 (SR),GI50 (NCI-H522),GI50 (CAKI-1),GI50 (COLO 205),GI50 (EKVX),GI50 (UACC-62),GI50 (SK-MEL-2),GI50 (LOX IMVI),GI50 (MCF7)
[O-]c1c2c(nn1-c1ccc(F)cc1)c1ccccc1c[n+]2Cc1ccccc1,14.6 µM (inactive),16.4 µM (inactive),11.7 µM (inactive),16.4 µM (inactive),12.8 µM (inactive),11.5 µM (inactive),10.2 µM (inactive),16.4 µM (inactive),14.6 µM (inactive),3.34 µM (inactive),30.8 µM (inactive),1.55 µM (inactive),4.12 µM (inactive),18.8 µM (inactive),1.76 µM (inactive),19.4 µM (inactive),2 µM (inactive),0.501 µM (active),,
O=[N+]([O-])c1ccc(-c2ccc(-c3csc(Nc4ccccn4)n3)o2)cc1,14.3 µM (inactive),41.4 µM (inactive),32.3 µM (inactive),47.9 µM (inactive),,> 100 µM (inactive),> 100 µM (inactive),13.8 µM (inactive),46.3 µM (inactive),> 100 µM (inactive),20.2 µM (inactive),> 100 µM (inactive),> 100 µM (inactive),> 100 µM (inactive),> 100 µM (inactive),,29.9 µM (inactive),> 100 µM (inactive),63.4 µM (inactive),
CCN1C(=O)N2C(OC)c3ccccc3C(Br)C2(OC)C1=O (stereo unspecified),> 100 µM (inactive),> 100 µM (inactive),> 100 µM (inactive),,,,,> 100 µM (inactive),> 100 µM (inactive),> 100 µM (inactive),> 100 µM (inactive),> 100 µM (inactive),> 100 µM (inactive),> 100 µM (inactive),> 100 µM (inactive),,> 100 µM (inactive),> 100 µM (inactive),> 100 µM (inactive),
O=c1nc2n(c3nsnc13)CCO2,> 100 µM (inactive),> 100 µM (inactive),> 100 µM (inactive),29.8 µM (inactive),> 100 µM (inactive),> 100 µM (inactive),> 100 µM (inactive),> 100 µM (inactive),,> 100 µM (inactive),> 100 µM (inactive),> 100 µM (inactive),> 100 µM (inactive),> 100 µM (inactive),> 100 µM (inactive),> 100 µM (inactive),> 100 µM (inactive),> 100 µM (inactive),> 100 µM (inactive),
O=c1n(C2CCCCC2)c(=C(Cl)Cl)c(=C(Cl)Cl)n1C1CCCCC1,> 100 µM (inactive),> 100 µM (inactive),> 100 µM (inactive),85.7 µM (inactive),> 100 µM (inactive),54.5 µM (inactive),> 100 µM (inactive),> 100 µM (inactive),> 100 µM (inactive),34.6 µM (inactive),> 100 µM (inactive),> 100 µM (inactive),> 100 µM (inactive),,> 100 µM (inactive),> 100 µM (inactive),> 100 µM (inactive),> 100 µM (inactive),> 100 µM (inactive),
NNC(=O)c1c(SCc2ccccc2)nc2c3ccccc3ccn12,27.1 µM (inactive),17 µM (inactive),,,23.4 µM (inactive),37.2 µM (inactive),16.5 µM (inactive),17.7 µM (inactive),21.9 µM (inactive),,36.6 µM (inactive),,15.5 µM (inactive),15 µM (inactive),23.9 µM (inactive),19.5 µM (inactive),10.2 µM (inactive),28.3 µM (inactive),,24.2 µM (inactive)
CC(C)=CC1CC(=[N+]=[N-])C(=O)C1(C)C (stereo unspecified),> 100 µM (inactive),> 100 µM (inactive),> 100 µM (inactive),> 100 µM (inactive),> 100 µM (inactive),> 100 µM (inactive),> 31.6 µM (inactive),> 100 µM (inactive),> 100 µM (inactive),> 51.8 µM (inactive),> 100 µM (inactive),23.1 µM (inactive),> 80.7 µM (inactive),> 100 µM (inactive),> 100 µM (inactive),> 100 µM (inactive),> 100 µM (inactive),> 100 µM (inactive),> 75.7 µM (inactive),
NCCC1([N+](=O)[O-])C=CN=CC1 (stereo unspecified),> 100 µM (inactive),> 100 µM (inactive),> 100 µM (inactive),> 100 µM (inactive),> 100 µM (inactive),> 100 µM (inactive),> 100 µM (inactive),> 100 µM (inactive),> 100 µM (inactive),> 100 µM (inactive),> 100 µM (inactive),> 100 µM (inactive),> 100 µM (inactive),> 100 µM (inactive),> 100 µM (inactive),> 100 µM (inactive),> 100 µM (inactive),> 100 µM (inactive),,
C#Cc1ccccc1C(=O)OC,> 100 µM (inactive),> 100 µM (inactive),> 100 µM (inactive),> 100 µM (inactive),> 100 µM (inactive),> 100 µM (inactive),> 100 µM (inactive),> 100 µM (inactive),> 100 µM (inactive),> 100 µM (inactive),> 100 µM (inactive),> 100 µM (inactive),35.9 µM (inactive),,> 100 µM (inactive),> 100 µM (inactive),> 100 µM (inactive),> 100 µM (inactive),> 100 µM (inactive),
CC(=O)NNc1nc(C)c(C(=O)/C=C/c2cccc([N+](=O)[O-])c2)s1,> 100 µM (inactive),> 100 µM (inactive),> 100 µM (inactive),> 100 µM (inactive),> 100 µM (inactive),> 100 µM (inactive),> 100 µM (inactive),> 100 µM (inactive),> 100 µM (inactive),> 100 µM (inactive),> 100 µM (inactive),> 100 µM (inactive),> 100 µM (inactive),> 100 µM (inactive),> 100 µM (inactive),19.5 µM (inactive),> 100 µM (inactive),> 100 µM (inactive),> 100 µM (inactive),
COC(=O)C1=C(\O)C[C@@]2(C)CC[C@@H](C(=O)OC)C2C/C=C\1C(=O)OC (stereo partly specified),> 100 µM (inactive),24.1 µM (inactive),> 100 µM (inactive),66.1 µM (inactive),87.7 µM (inactive),72.8 µM (inactive),> 100 µM (inactive),> 100 µM (inactive),> 100 µM (inactive),50.1 µM (inactive),> 100 µM (inactive),81.3 µM (inactive),> 100 µM (inactive),> 100 µM (inactive),> 100 µM (inactive),> 100 µM (inactive),> 100 µM (inactive),,> 100 µM (inactive),
C#CCNC(CS)C(=O)O (stereo unspecified),> 100 µM (inactive),,> 100 µM (inactive),> 100 µM (inactive),> 100 µM (inactive),> 100 µM (inactive),> 100 µM (inactive),> 100 µM (inactive),> 100 µM (inactive),> 100 µM (inactive),> 100 µM (inactive),> 100 µM (inactive),> 100 µM (inactive),> 100 µM (inactive),> 100 µM (inactive),> 100 µM (inactive),> 100 µM (inactive),> 100 µM (inactive),> 100 µM (inactive),
COc1ccc(S(=O)(=O)N/N=C/CN2C(=O)c3ccccc3C2=O)cc1OC,> 100 µM (inactive),,> 100 µM (inactive),> 100 µM (inactive),> 100 µM (inactive),> 100 µM (inactive),> 100 µM (inactive),> 100 µM (inactive),> 100 µM (inactive),> 100 µM (inactive),> 100 µM (inactive),> 100 µM (inactive),> 100 µM (inactive),> 100 µM (inactive),> 100 µM (inactive),> 100 µM (inactive),> 100 µM (inactive),> 100 µM (inactive),> 100 µM (inactive),
CNC(=S)N(C)C(=S)Nn1c(=O)c(C)nn(C)c1=S,,> 100 µM (inactive),,> 100 µM (inactive),> 100 µM (inactive),> 100 µM (inactive),> 100 µM (inactive),> 100 µM (inactive),> 100 µM (inactive),> 100 µM (inactive),> 100 µM (inactive),> 100 µM (inactive),> 100 µM (inactive),,> 100 µM (inactive),> 100 µM (inactive),> 100 µM (inactive),,> 100 µM (inactive),
CCOC(=O)C1C=C2O[C@@H]3OC4(CCCCC4)O[C@@H]3C2[C@H]2C(=O)C=CC(=O)[C@@]12C(=O)OC (stereo partly specified),18.2 µM (inactive),16.7 µM (inactive),17.2 µM (inactive),6.61 µM (inactive),14.5 µM (inactive),16.8 µM (inactive),6.9 µM (inactive),8.69 µM (inactive),18.2 µM (inactive),2.84 µM (inactive),8.38 µM (inactive),2.71 µM (inactive),3.98 µM (inactive),16 µM (inactive),8.61 µM (inactive),16.6 µM (inactive),16.8 µM (inactive),16.1 µM (inactive),15.5 µM (inactive),
O=CN/C=C/c1ccccc1O,> 100 µM (inactive),> 100 µM (inactive),> 100 µM (inactive),> 100 µM (inactive),> 100 µM (inactive),> 100 µM (inactive),> 100 µM (inactive),> 100 µM (inactive),> 100 µM (inactive),> 100 µM (inactive),> 100 µM (inactive),> 100 µM (inactive),> 100 µM (inactive),> 100 µM (inactive),> 100 µM (inactive),> 100 µM (inactive),> 100 µM (inactive),> 100 µM (inactive),> 100 µM (inactive),
